Test results published in patent publication EP4559896A1, “PH-SENSITIVE CATIONIC LIPID AND LIPID NANOPARTICLE” (National University Corporation Hokkaido University, priority 2022, dated 2024).

How the values were obtained:
[1] = encapsulation rate of lipid nanoparticles (RiboGreen); type: physicochemical; conditions: Fluc mRNA-loaded lipid nanoparticles
Procedure: The encapsulation rate of the lipid nanoparticles was determined by measuring the amount of encapsulated nucleic acid (mRNA) using RiboGreen (manufactured by Life Technologies), which is an RNAintercalator. The amount of mRNA was quantified based on a calibration curve prepared from a dilution series solution of mRNA at a known concentration.
Specifically, 10 mM HEPES buffer (pH 7.4), 10 w/v% Triton X-100, and RiboGreen were mixed at 978.8 µL, 20 µL, and 1.25 µL per 10 wells, respectively, to obtain a Triton(+) buffer. A Triton(-) buffer was obtained in replacing Triton X-100 with 10 mM HEPES buffer (pH 7.4). 100 µL/well of the sample was added to a black 96-well plate for fluorescence measurement, and 100 µL/well of Triton(+) buffer or Triton(-) buffer was added. After the plate was gently shaken on a shaking incubator (SI-300, manufactured by AS ONE) (700 rpm, 30 seconds), the fluorescence intensity of each well was measured using a microplate reader (VARIOSKAN LUX, manufactured by Thermo Fisher Scientific) (wavelength Ex/Em=500 nm/525 nm), and the nucleic acid encapsulation rate (%) was calculated.

[2] = average particle size and polydispersity index by dynamic light scattering; type: physicochemical; conditions: Fluc mRNA-loaded lipid nanoparticles
Procedure: The average particle size (number average value), ζ-average particle size, and polydispersity index (PdI) of the lipid nanoparticles in PBS(-) (pH 7.4), and the zeta potential in 10 mM HEPES buffer (pH 7.4) were measured using an analyzer "Zetasizer Nano ZS ZEN3600" (manufactured by Malvern) utilizing dynamic light scattering.

[3] = test system: BALB/c mice; test: Fluc activity in tissues of mice administered with Fluc mRNA-loaded lipid nanoparticles; type: in vivo; conditions: for luciferase activity in the heart compared with control mice (CL4F6-containing lipid nanoparticles) / luciferase activity in the lung compared with control mice (CL4F6-containing lipid nanoparticles) / luciferase activity in the muscle compared with control mice (CL4F6-containing lipid nanoparticles) / luciferase activity in the spleen compared with control mice (CL4F6-containing lipid nanoparticles): TOT/DSPC/chol/PEG-DMG=65/15/20/1.5, control CL4F6/DSPC/chol/PEG-DMG=50/10/40/1.5 (mol%)
Procedure: Lipid nanoparticles were administered to mice by intravenous injection into the tail vein using a 27G needle. Unless otherwise specified, BALB/c mice (4 to 5 weeks old, female) were used.
First, BALB/c mice (female, 4 weeks old) were intravenously injected with lipid nanoparticles encapsulating Fluc mRNA (Fluc mRNA-loaded lipid nanoparticles) at a dose of 0.01 mg mRNA/kg. Six hours after intravenous injection, the mice were euthanized, each tissue was collected, frozen in liquid nitrogen, and stored at -80°C. The tissues were homogenized in passive lysis buffer (manufactured by Promega) using a bead-type cell disruptor (Micro Smash MS-100R, manufactured by TOMY Seiko). Tissue debris was removed by centrifugation, and the supernatant was collected. Fluc activity in the supernatant was measured using the Luciferase Assay System (E1500, manufactured by Promega) according to the manufacturer's protocol. Luminescence was measured using a luminometer (Luminescencer-PSN, manufactured by ATTO). Protein concentration was determined using a commercially available assay kit (BCA Protein Assay Kit, manufactured by Pierce). Fluc activity was expressed as relative light units (RLU) per mg of protein.
Specifically, first, each lipid nanoparticle was intravenously administered into the tail vein of mice in an amount of 0.2 mg/kg of Fluc mRNA, and 6 hours after administration of the lipid nanoparticles, about 50 mg each of the liver, spleen, lung, heart, brain, and muscle was collected and stored frozen. 500 µL of passive lysis buffer (manufactured by Promega) was added to each tube containing the collected organ. The liver was homogenized at 4000 rpm for 20 seconds twice, the spleen, kidney, lung, and heart were homogenized at 5000 rpm for 20 seconds twice, and the muscle was homogenized at 5000 rpm for 20 seconds four times; then, the homogenate was centrifuged at 13000 rpm at 4°C for 10 minutes, and the supernatant was collected as a sample for measurement. The liver and spleen were diluted 100 times with passive lysis buffer. 50 µL of a measurement sample (tissue supernatant) was mixed with 50 µL of luciferase assay buffer of the Luciferase Assay System (E1500, manufactured by Promega) previously added in a test tube by pipetting, and the amount of luminescence was measured with a luminometer. Protein concentration was determined using a commercially available assay kit (BCA Protein Assay Kit, manufactured by Pierce). Fluc activity was expressed as relative light units (RLU) per mg of protein.

[4] = TOT/DSPC/chol/PEG-DMG=65/15/20/1.5 (mol%)
[5] = Example 16, TOT/DSPC/chol/PEG-DMG=65/15/20/1.5 (mol%), i.v. tail vein
[6] = TOT-4/DSPC/chol/PEG-DMG=65/15/20/1.5, CL4F6/DSPC/chol/PEG-DMG=50/10/40/1.5 (mol%)
[7] = Example 15, TOT-4/PC/chol/PEG-DMG=65/15/20/1 (mol%), PC = DSPC, i.v. tail vein

SMILES	Encapsulation Rate [1, 4] [%]	PdI [2, 4]	ζ-Average Particle Size [2, 4] [nm]	luciferase activity in the heart compared with control mice (CL4F6-containing lipid nanoparticles) ([3]; Example 33, i.v. tail vein)	luciferase activity in the lung compared with control mice (CL4F6-containing lipid nanoparticles) ([3]; Example 33, i.v. tail vein)	luciferase activity in the muscle compared with control mice (CL4F6-containing lipid nanoparticles) ([3]; Example 33, i.v. tail vein)	other results
CCCCCCCC/C=C\CCCCCCCC(=O)OCC(COC(=O)CCCCCCC/C=C\CCCCCCCC)(COC(=O)CCCCCCC/C=C\CCCCCCCC)NC(=O)CCCN(C)C [TOT-2, 2-(4-(dimethylamino)butanamido)-2-((oleoyloxy)methyl)propane-1,3-diyl dioleate]	92.3	0.347	166.2	–	higher	–	Fluc activity (RLU/mg protein) in the liver [3, 5]: confirmed in the liver in all the mice except for those administered with Fluc mRNA-loaded lipid nanoparticles using TOT-2
CCCCCCCC/C=C\CCCCCCCC(=O)OCC(COC(=O)CCCCCCC/C=C\CCCCCCCC)(COC(=O)CCCCCCC/C=C\CCCCCCCC)NC(=O)CCN(CC)CC [TOT-4, 2-(3-(diethylamino)propanamido)-2-((oleoyloxy)methyl)propane-1,3-diyl dioleate]	83.5	0.157	134.3	very high	higher	very high	Encapsulation Rate [1, 6]: 0.157%; Number Average Particle Size [2, 6]: 33.5 nm; ζ-Average Particle Size [2, 6]: 134.3 nm; Fluc activity (RLU/mg protein) in the liver and spleen ([3]; Example 13, TOT/DOPE/chol/PEG-DMG=60/15/25/1.0 (mol%), i.v. tail vein): very high; Fluc activity in the spleen compared with the liver ([3]; Example 15, TOT-4/PC/chol/PEG-DMG=65/15/20/1 (mol%), PC = DPPC, i.v. tail vein): higher Fluc activity in the spleen than in the liver; Fluc activity (RLU/mg protein) in the liver and spleen ([3]; Example 15, TOT-4/PC/chol/PEG-DMG=65/15/20/1 (mol%), PC = DSPC, DPPC, POPC, or DOPC, i.v. tail vein): confirmed; Fluc activity (RLU/mg protein) in the liver [3, 7]: relatively suppressed; Fluc activity in the spleen compared with the liver [3, 7]: higher Fluc activity in the spleen than in the liver; Fluc activity (RLU/mg protein) in the spleen [3, 5]: very high; gene expression in the spleen, times higher than Fluc mRNA-loaded lipid nanoparticles using RNA-LPX ([3]; Example 17, TOT-4/DSPC/chol/PEG-DMG=65/15/20/1.5 (mol%) versus RNA-LPX (DOTMA/DOPE=50/50 mol%), i.v. tail vein): 24 times; gene expression in the spleen and liver ([3]; Example 18, TOT-4/DSPC/chol/PEG-DMG=65/15/20/1.5 (mol%), similar to CL4F6/DSPC/chol/PEG-DMG=50/10/40/1.5, i.v. tail vein): high; luciferase activity in the spleen, lung, brain, heart, and muscle compared with CL4F6-containing lipid nanoparticles ([3]; Example 19, TOT-4/DSPC/chol/PEG-DMG=65/15/20/1.5 versus CL4F6/DSPC/chol/PEG-DMG=50/10/40/1.5 (mol%), i.v. 0.2 mg/kg of Fluc mRNA, 6 hours, N=3): higher; luciferase activity in the brain ([3]; Example 33, TOT/DSPC/chol/PEG-DMG=65/15/20/1.5 (mol%), i.v. tail vein): remarkably high; luciferase activity in the spleen compared with control mice (CL4F6-containing lipid nanoparticles) ([3]; Example 33, i.v. tail vein): higher
CCCCCCCC/C=C\CCCCCCCC(=O)OCC(COC(=O)CCCCCCC/C=C\CCCCCCCC)(COC(=O)CCCCCCC/C=C\CCCCCCCC)NC(=O)CCN(C)CC [TOT-16, 2-(3-(ethyl(methyl)amino)propanamido)-2-((oleoyloxy)methyl)propane-1,3-diyl dioleate]	87.6	0.180	99.2	higher	–	higher	luciferase activity in the spleen compared with control mice (CL4F6-containing lipid nanoparticles) ([3]; Example 33, i.v. tail vein): higher

The next lines start with results.

Encapsulation Rate [1, 4] [%]	PdI [2, 4]	ζ-Average Particle Size [2, 4] [nm]	SMILES	luciferase activity in the heart compared with control mice (CL4F6-containing lipid nanoparticles) ([3]; Example 33, i.v. tail vein)	luciferase activity in the lung compared with control mice (CL4F6-containing lipid nanoparticles) ([3]; Example 33, i.v. tail vein)	luciferase activity in the muscle compared with control mice (CL4F6-containing lipid nanoparticles) ([3]; Example 33, i.v. tail vein)	other results
92.4	0.232	128.0	CCCCCCCC/C=C\CCCCCCCC(=O)OCC(COC(=O)CCCCCCC/C=C\CCCCCCCC)(COC(=O)CCCCCCC/C=C\CCCCCCCC)NC(=O)CNC [TOT-7, 2-(2-(methylamino)acetamido)-2-((oleoyloxy)methyl)propane-1,3-diyl dioleate]	higher	–	–	–
92.2	0.319	130.0	CCCCCCCC/C=C\CCCCCCCC(=O)OCC(COC(=O)CCCCCCC/C=C\CCCCCCCC)(COC(=O)CCCCCCC/C=C\CCCCCCCC)NC(=O)C1CCN(CC)CC1 [TOT-18, 2-(1-ethylpiperidine-4-carboxamide)-2-((oleoyloxy)methyl)propane-1,3-diyl dioleate]	–	higher	very high	–
92.3	0.344	167.2	CCCCCCCC/C=C\CCCCCCCC(=O)OCC(COC(=O)CCCCCCC/C=C\CCCCCCCC)(COC(=O)CCCCCCC/C=C\CCCCCCCC)NC(=O)C1CCN(C)CC1 [TOT-3, 2-(1-methylpiperidine-4-carboxamide)-2-((oleoyloxy)methyl)propane-1,3-diyl dioleate]	–	higher	–	–
92.2	0.261	142.6	CCCCCCCC/C=C\CCCCCCCC(=O)OCC(COC(=O)CCCCCCC/C=C\CCCCCCCC)(COC(=O)CCCCCCC/C=C\CCCCCCCC)NC(=O)C1CCN(C(C)C)CC1 [TOT-19, 2-(1-isopropylpiperidine-4-carboxamide)-2-((oleoyloxy)methyl)propane-1,3-diyl dioleate]	very high	highest	very high	–
